Data as given in patent publication US20230136702A1, “Inhibitors of Human Herpesviruses” (The Governors of the University of Alberta, priority 2020, published 2023).
Structures can show the parent of a compound that is named as a salt.

Experiments:
[1] = biological target: T1, HCMV DNA polymerase (UL54) (Human cytomegalovirus, UniProt P08546); assay: HCMV DNA polymerase enzyme inhibition assay (ProFoldin, fluorescence); format: biochemical; settings: 37° C., duplicate, max 40 μM
T1 construct: 6His (C); made in house; host or cells: Sf9 insect cells (baculovirus, pFastBac)
T1 sequence (P08546 whole entry): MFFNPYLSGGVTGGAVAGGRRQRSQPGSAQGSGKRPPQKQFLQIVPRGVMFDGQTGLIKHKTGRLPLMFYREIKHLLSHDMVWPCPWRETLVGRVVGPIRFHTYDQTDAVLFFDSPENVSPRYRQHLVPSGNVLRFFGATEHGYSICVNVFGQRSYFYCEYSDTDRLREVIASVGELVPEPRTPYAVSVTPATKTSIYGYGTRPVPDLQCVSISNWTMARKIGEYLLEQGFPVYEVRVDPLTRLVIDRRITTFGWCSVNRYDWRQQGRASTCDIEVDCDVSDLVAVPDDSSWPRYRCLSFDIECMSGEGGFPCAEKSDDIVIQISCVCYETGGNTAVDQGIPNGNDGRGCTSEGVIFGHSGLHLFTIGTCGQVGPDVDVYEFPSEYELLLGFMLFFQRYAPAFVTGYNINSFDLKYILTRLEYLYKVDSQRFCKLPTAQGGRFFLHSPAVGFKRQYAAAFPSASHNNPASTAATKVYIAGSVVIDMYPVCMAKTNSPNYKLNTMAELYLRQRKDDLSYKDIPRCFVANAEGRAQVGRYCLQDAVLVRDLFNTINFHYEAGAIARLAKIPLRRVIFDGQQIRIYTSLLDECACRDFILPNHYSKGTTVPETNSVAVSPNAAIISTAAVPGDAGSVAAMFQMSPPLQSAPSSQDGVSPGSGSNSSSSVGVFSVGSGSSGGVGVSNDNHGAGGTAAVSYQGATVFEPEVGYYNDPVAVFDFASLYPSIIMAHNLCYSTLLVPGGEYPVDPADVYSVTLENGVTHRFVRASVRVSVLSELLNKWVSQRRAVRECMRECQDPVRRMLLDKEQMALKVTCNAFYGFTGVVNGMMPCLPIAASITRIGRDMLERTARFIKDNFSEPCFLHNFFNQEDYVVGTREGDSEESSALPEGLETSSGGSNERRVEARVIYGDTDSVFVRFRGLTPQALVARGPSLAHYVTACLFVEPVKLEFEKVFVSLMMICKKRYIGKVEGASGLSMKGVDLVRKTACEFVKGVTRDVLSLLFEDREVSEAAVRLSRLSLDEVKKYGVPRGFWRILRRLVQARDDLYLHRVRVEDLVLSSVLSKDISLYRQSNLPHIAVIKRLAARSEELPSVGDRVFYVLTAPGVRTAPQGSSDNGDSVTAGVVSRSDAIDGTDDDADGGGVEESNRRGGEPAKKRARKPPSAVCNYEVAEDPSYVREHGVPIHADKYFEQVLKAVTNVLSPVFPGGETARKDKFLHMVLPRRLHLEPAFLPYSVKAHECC
Procedure: The HCMV DNA polymerase assay was developed by ProFoldin. The assay detects the formation of DNA from the DNA polymerase reaction in the presence of a DNA template, dATP and dGTP. The formation of the DNA is detected by using a fluorescence method. The fluorescence intensity increases when DNA is generated by the enzyme reaction.
A time-course experiment was performed aside the enzyme inhibition assay to ensure the assay was sensitive to the enzyme inhibition. The wells for the time-course experiment contained 1 μL of DMSO and the same reaction mixture as that in the enzyme inhibition assay. The time-course data varied between plates. The reactions were stopped when the fluorescence reached a value of about 3700 for each plate.
Exemplary solid compounds (e.g., as described herein) were dissolved in DMSO to make […] stock solutions. PFA (phosphonoformic acid or phosphonomethanoic acid) was used as a positive control. The compound mother plates were prepared at 50× concentrated compound concentrations with a 2-fold serial dilution. All the exemplary compounds except PFA were diluted in DMSO. PFA was diluted in water. The maximum compound concentration was 2 mM that gave the final concentration of 40 μM in the assay. One microliter of the 50× stock solutions was transferred into the assay plates. Three copies of assay plates were prepared, two for HCMV DNA polymerase assay and one for compound background control.
The following is the protocol for enzyme inhibition performed at 37° C.:
1. Prepared a premix composed of 35347 μL of H2O, 5220 μL of 10× assay buffer and 149 μL of 350×HCMV DNA polymerase.
2. Added 39 μL of the premix into the wells with 1 μL of the compound. Incubated the mixture for at least 5 min.
3. Added 10 μL of 5×dNTP (0.1 mM), 5×DNA template solutions into each well and incubated the solution until the fluorescence value reached a value about 3700 for the DMSO-only control wells.
4. Added 50 μL of the 1× dye into the wells.
5. Read the fluorescence at emission wavelength of 535 nm and excitation wavelength of 485 nm.
For the compound background reading, added 99 μL of water in the wells with 1 μL of compounds and read the fluorescence. […] The 0% inhibition value F0 was from the wells with DMSO (no inhibitor).
The background values were subtracted from the fluorescence reading to get the net fluorescence values. The net fluorescence values were used for calculation of the percentage inhibition.
The assay was performed in duplicate for the test article at […], 1.25, 0.625, 0.313, 0.156 and 0.078 μM. The IC50 curves were obtained by fitting the percentage inhibition values with the compound concentrations using Prism GraphPad software.

[2] = biological target: T2, hERG potassium channel (Homo sapiens, UniProt Q12809); assay: Inhibition of hERG potassium channel, automated patch clamp (SyncroPatch 384PE) in CHO cells; format: cell-based; settings: CHO cells stably expressing hERG, room temperature, 0.494-40.00 μM; read-out: CHO-hERG Activity Range
T2 construct: host or cells: CHO cells stably expressing hERG
T2 sequence (Q12809 whole entry): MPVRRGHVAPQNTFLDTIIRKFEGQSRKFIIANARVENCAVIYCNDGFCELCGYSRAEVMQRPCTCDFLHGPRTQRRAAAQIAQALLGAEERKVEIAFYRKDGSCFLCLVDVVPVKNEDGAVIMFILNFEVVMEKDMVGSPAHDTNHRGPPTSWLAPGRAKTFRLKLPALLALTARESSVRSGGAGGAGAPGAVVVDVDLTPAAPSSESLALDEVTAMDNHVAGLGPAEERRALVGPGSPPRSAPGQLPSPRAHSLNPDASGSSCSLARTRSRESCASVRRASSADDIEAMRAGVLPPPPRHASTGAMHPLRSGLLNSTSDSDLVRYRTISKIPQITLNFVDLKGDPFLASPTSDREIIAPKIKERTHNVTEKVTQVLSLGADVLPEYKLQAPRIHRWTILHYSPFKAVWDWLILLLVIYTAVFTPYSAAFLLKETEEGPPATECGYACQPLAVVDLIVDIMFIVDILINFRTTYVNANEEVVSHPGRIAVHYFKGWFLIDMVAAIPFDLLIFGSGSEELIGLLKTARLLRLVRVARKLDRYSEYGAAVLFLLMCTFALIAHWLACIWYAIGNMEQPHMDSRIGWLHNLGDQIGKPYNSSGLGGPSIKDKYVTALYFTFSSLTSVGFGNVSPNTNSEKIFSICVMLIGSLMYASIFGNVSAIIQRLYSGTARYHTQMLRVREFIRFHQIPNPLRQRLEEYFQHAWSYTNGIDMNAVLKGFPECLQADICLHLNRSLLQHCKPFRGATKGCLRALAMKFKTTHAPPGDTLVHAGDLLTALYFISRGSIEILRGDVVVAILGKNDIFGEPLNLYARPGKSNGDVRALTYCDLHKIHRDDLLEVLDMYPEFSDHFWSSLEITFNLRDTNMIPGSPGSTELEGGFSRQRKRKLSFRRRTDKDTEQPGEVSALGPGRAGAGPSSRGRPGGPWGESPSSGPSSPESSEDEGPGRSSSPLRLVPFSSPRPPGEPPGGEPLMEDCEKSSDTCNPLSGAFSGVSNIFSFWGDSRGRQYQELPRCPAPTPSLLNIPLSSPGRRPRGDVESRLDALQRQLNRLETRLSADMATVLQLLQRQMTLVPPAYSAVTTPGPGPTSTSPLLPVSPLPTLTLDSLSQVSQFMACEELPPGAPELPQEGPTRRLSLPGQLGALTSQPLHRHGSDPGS
Procedure: This automated patch clamp method (SyncroPatch 384PE) CHO cells stably expressing hERG potassium channels from Sophion Biosciences were used for this test.
The cells were cultured in a humidified and air-controlled (5% C02) incubator at 37° C.
The CHO cells which were at least two days after plating and more than 75% confluent would be used for experiments. Before testing, cells were harvested using TrypLE and resuspended in the physiological solution at the room temperature.
For the electrophysiological recordings the following solutions were used (Table 5). The physiological solution and external solution were prepared at least one month. The intracellular solution was prepared in batches aliquoted, and stored at 4° C. until used.
Exemplary compounds (e.g., as described herein) were dissolved in 100% DMSO to obtain stock solutions for different test concentrations. Then the stock solutions were further diluted into external solution to achieve final concentrations for testing. Visual check for precipitation was conducted before testing. Final DMSO concentration in external solution was not more than 0.30% for the compounds.
From this holding potential of −80 mV, the voltage was first stepped to −50 mV for 80 ms for leak subtraction, and then stepped to +20 mV for 4800 ms to open hERG channels. After that, the voltage was stepped back down to −50 mV for 5000 ms, causing a “rebound” or tail current, which was measured and collected for data analysis. Finally, the voltage was stepped back to the holding potential (−80 mV, 1000 ms). This voltage command protocol was repeated every 20000 msec. This command protocol was performed continuously during the test (vehicle control and test compound).
hERG SyncroPatch assay was conducted at room temperature. The Setup, Prime Chip, Catch and Seal Cells, Amplifier Settings, Voltage and Application Protocols were established with Biomek Software (Nanion).
One addition of 40 μL of the vehicle was applied, followed by 300s for a baseline period. Then the doses of exemplary test compounds were added with 40 μL. The exposure of test compound at each concentration was no less than 300s. […] Five concentrations (0.494 μM, 1.48 μM, 4.44 μM, 13.33 μM and 40.00 μM) were tested for each compound. Minimum 2 replicates per concentration were obtained.
Within each well recording, percent of control values were calculated for each test compound concentration current response based on peak current in presence of reference control (current response/peak current)×100%. The Dose-Response curves were fit to the standard Hill equation as shown below:
Ipost cpd/Ipre cpd=Bottom+(Top−Bottom)/(1+10^((Log IC50−X)*HillSlope))
Where X is the logarithm of concentration, Ipost cpd/Ipre cpd is the normalized peak current amplitude, Top is 1 and Bottom is equal to 0.
Curve-fitting and IC50 calculations were performed by GraphPad Prism 5.0. If the inhibition obtained at the lowest concentration tested was over 50%, or at the highest concentration tested was less than 50%, we reported the IC50 as less than lowest concentration, or higher than highest concentration, respectively.

[3] = test system: HCMV US3-6-EGFP-HCMV-AD169 strain; assay: In vitro inhibitory (antiviral) activity against HCMV, GFP reporter in MRC5 cells; format: cell-based, Human cytomegalovirus (HCMV); settings: Human betaherpesvirus 5, AD169, MRC5, 96 h, read-out: HCMV Antiviral EC50 range
Procedure: (§1) Exemplary compounds (e.g., as described herein) were prepared as 20 mM stock solutions with DMSO. Reference compound was ganciclovir (Sigma). Compounds were tested at 8 concentrations, 3-fold serial dilutions, in duplicate for EC50 and CC50 determinations. The highest testing concentrations of the exemplary compounds and reference compound were 40 μM and 100 μM, respectively. The final concentration of DMSO in the cell culture was 0.5%.
HCMV US3-6-EGFP-HCMV-AD169 strain was obtained from Institute Pasteur of Shanghai, CAS. The virus contains GFP as a reporter of the viral replication.
(§2) MRC5 cells (ATCC CCL-171) was obtained from the ATCC and maintained in the EMEM (Sigma) supplemented with 10% FBS (HyClone), 1% L-glutamine (Gibco), 1% NEAA (Gibco), and 1% PS (Hyclone). Reagent:
In 96-well plates, MRC5 cells were seeded at 20,000 cells per well and cultured at 37° C. and 5% C02 overnight. Next day, compounds (8 concentrations, 3-fold dilutions, in duplicate) and US3-6-EGFP-HCMV-AD169 (MOI=0.1) were added to the cells. The resulting cultures were incubated at 37° C. and 5% C02 for 4 days. Fluorescence intensity was determined by Acumen Cellista (TTP LabTech). The antiviral activity of each compound was calculated based on the inhibition of expression of GFP at each concentration normalized by the cell control (cells without virus infection or compound treatment).
(§3) Antiviral activity and cytotoxicity of the compounds were expressed as % Inhibition and % Viability, respectively, and calculated with the formulas below:
Inhibition (%)=100−(Raw dataCPD−AverageCC)/(AverageVC−AverageCC)*100
(§4) Raw dataCPD indicates the values of the compound-treated wells; AverageVC, AverageCC and AverageMC indicate the average values of the virus control (cells infected with virus, without compound treatment), cell control and medium control wells, respectively.
(§5) EC50 and CC50 values were calculated using the GraphPad Prism software.

[4] = Cytotoxicity in MRC5 cells without virus infection (CCK8); format: cell-based; settings: human
Procedure: as §1, §2
Cytotoxicity of the compounds was assessed under the same conditions, but without virus infection, in parallel. Cell viability was measured with CCK8 following the manufacturer's manual. CC50 values were then calculated based on cytotoxicity at the test concentrations normalized by the medium control (medium only).
as §3
Viability (%)=(Raw dataCPD−AverageMC)/(AverageCC−AverageMC)*100
as §4, §5

Row | SMILES | IC50 [1] [nM] | IC50 [2] [nM] | EC50 [3] [nM] | CC50 at 4 days [4] [nM]
1 | CN1CCN(c2cnc3c(cc(C(=O)NCc4ccc(F)cc4)c(=O)n3CC(=O)N3CC4(CC4)C3)n2)C1=O [Compound 10, 5-[2-(5-azaspiro[2.3]hexan-5-yl)-2-oxoethyl]-N-[(4-fluorophenyl)methyl]-2-(3-methyl-2-oxoimidazolidin-1-yl)-6-oxo-5,6-dihydropyrido[2,3-b]pyrazine-7-carboxamide] | < 1000 | – | – | –
2 | O=C(O)CN1CCN(c2cnc3c(cc(C(=O)NCc4ccc(Cl)cc4)c(=O)n3CC(=O)N3CC4(CC4)C3)n2)C1=O [Compound 20, [3-(5-[2-(5-azaspiro[2.3]hexan-5-yl)-2-oxoethyl]-7-{[(4-chlorophenyl)methyl]carbamoyl}-6-oxo-5,6-dihydropyrido[2,3-b]pyrazin-2-yl)-2-oxoimidazolidin-1-yl]acetic acid] | – | > 10000 | > 1000 | > 40000
3 | CC1(C)CN(C(=O)Cn2c(=O)c(C(=O)NCc3ccc(Cl)cc3)cc3nc(N4CCN(CC(=O)O)C4=O)cnc32)C1 [Compound 5, [3-(7-{[(4-chlorophenyl)methyl]carbamoyl}-5-[2-(3,3-dimethylazetidin-1-yl)-2-oxoethyl]-6-oxo-5,6-dihydropyrido[2,3-b]pyrazin-2-yl)-2-oxoimidazolidin-1-yl]acetic acid] | – | > 10000 | > 1000 | > 40000
4 | CCOC(=O)CCN1CCN(c2cnc3c(cc(C(=O)NCc4ccc(Cl)cc4)c(=O)n3CC(=O)N3CC(C)(F)C3)n2)C1=O [Compound 17, ethyl 3-[3-(7-{[(4-chlorophenyl)methyl]carbamoyl}-5-[2-(3-fluoro-3-methylazetidin-1-yl)-2-oxoethyl]-6-oxo-5,6-dihydropyrido[2,3-b]pyrazin-2-yl)-2-oxoimidazolidin-1-yl]propanoate] | < 1000 | – | – | –
5 | CN1CCN(c2cnc3c(cc(C(=O)NCc4ccc(C#N)cc4)c(=O)n3CC(=O)N3CC4(CC4)C3)n2)C1=O [Compound 11, 5-[2-(5-azaspiro[2.3]hexan-5-yl)-2-oxoethyl]-N-[(4-cyanophenyl)methyl]-2-(3-methyl-2-oxoimidazolidin-1-yl)-6-oxo-5,6-dihydropyrido[2,3-b]pyrazine-7-carboxamide] | < 1000 | – | – | –
6 | CC1(F)CN(C(=O)Cn2c(=O)c(C(=O)NCc3ccc(Cl)cc3)cc3nc(N4CCN(CCC(=O)O)C4=O)cnc32)C1 [Compound 18, 3-[3-(7-{[(4-chlorophenyl)methyl]carbamoyl}-5-[2-(3-fluoro-3-methylazetidin-1-yl)-2-oxoethyl]-6-oxo-5,6-dihydropyrido[2,3-b]pyrazin-2-yl)-2-oxoimidazolidin-1-yl]propanoic acid] | < 1000 | > 10000 | – | > 40000
7 | CC1(F)CN(C(=O)Cn2c(=O)c(C(=O)NCc3ccc(Cl)cc3)cc3nc(N4CCN(CCNC(=O)CN)C4=O)cnc32)C1 [Compound 38, N-[(4-chlorophenyl)methyl]-5-[2-(3-fluoro-3-methylazetidin-1-yl)-2-oxoethyl]-2-{3-[2-(glycylamino)ethyl]-2-oxoimidazolidin-1-yl}-6-oxo-5,6-dihydropyrido[2,3-b]pyrazine-7-carboxamide-hydrochloride salt] | < 1000 | – | – | –
8 | CN(CCN1CCN(c2cnc3c(cc(C(=O)NCc4ccc(Cl)cc4)c(=O)n3CC(=O)N3CC(C)(F)C3)n2)C1=O)S(C)(=O)=O [Compound 24, N-[(4-chlorophenyl)methyl]-5-[2-(3-fluoro-3-methylazetidin-1-yl)-2-oxoethyl]-2-(3-{2-[(methanesulfonyl)(methyl)amino]ethyl}-2-oxoimidazolidin-1-yl)-6-oxo-5,6-dihydropyrido[2,3-b]pyrazine-7-carboxamide] | > 1000 | – | – | –
9 | CC1(F)CN(C(=O)Cn2c(=O)c(C(=O)NCc3ccc(Cl)cc3)cc3nc(N4CCN(CCN5CCOCC5)C4=O)cnc32)C1 [Compound 39, N-[(4-chlorophenyl)methyl]-5-[2-(3-fluoro-3-methylazetidin-1-yl)-2-oxoethyl]-2-{3-[2-(morpholin-4-yl)ethyl]-2-oxoimidazolidin-1-yl}-6-oxo-5,6-dihydropyrido[2,3-b]pyrazine-7-carboxamide] | > 1000 | – | – | –
10 | CNCCN1CCN(c2cnc3c(cc(C(=O)NCc4ccc(Cl)cc4)c(=O)n3CC(=O)N3CC(C)(F)C3)n2)C1=O [Compound 23, N-[(4-chlorophenyl)methyl]-5-[2-(3-fluoro-3-methylazetidin-1-yl)-2-oxoethyl]-2-{3-[2-(methylamino)ethyl]-2-oxoimidazolidin-1-yl}-6-oxo-5,6-dihydropyrido[2,3-b]pyrazine-7-carboxamide-hydrogen chloride] | < 1000 | – | – | –
